# From patent US12557812B2, “Method and composition for water treatment” (BROMINE COMPOUNDS LTD., priority 2019, dated 2026)
# Entries after “also recorded” stand apart in the source; their conditions may differ. Read-outs that look alike come from different tables or passages of the source.
# Tests used:
# [1] = system: Pseudomonas aeruginosa biofilm; assay: Sequential application of CDA then biocide on 3-day-old biofilm grown in CDC biofilm reactor (single tube method); assay type: cell-based; settings: for effect on biofilm of biocides applied alone, compared with each other: Example 8, 5 ppm, 1 h (FIG. 17)
# [2] = system: P. aeruginosa strain PA14 biofilm; assay: Simultaneous application of CDA and biocide on 3-day biofilm in 24-well plates; assay type: cell-based, Pseudomonas aeruginosa; settings: for Log reduction vs. control: biocide alone / Enhancement / Log reduction vs. control: combination of the 310 nm CDA and biocide: biocide 10 ppm; for Enhancement: simultaneous 310 nm CDA; for Log reduction vs. control: combination of the 310 nm CDA and biocide: simultaneous application
# Description: The effect of bromine-containing biocide in combination with CDA on pre-grown biofilms was studied. The experiment was carried out utilizing (A) the P. aeruginosa strain PA14 and (B) mixed bacterial species derived from environmental and industrial water.
# Bacteria were cultured in EPRI medium supplemented with Hutners mineral solution and glucose (0.2%). Microorganisms were incubated at room temperature (22° C.), under aerobic conditions with shaking. The biofilm culture system used included polystyrene 24-well plates that were treated with protein to enhance attachment and growth of biofilm bacteria according to the method described in Davies D G, Marques C N, 2009, J Bacteriol 191:1393-1403.
# Following inoculation with 1 mL bacterial culture, spent medium was removed and replaced with sterile medium every 24 hours for 3 days, and a final medium exchange was performed 3 hours prior to treatment. Additionally, the medium was exchanged prior to treatment in order to remove planktonic bacteria. Treatments consisted of 100 μL of 310 nM CDA and bromine-containing biocide, or bromine-containing biocide alone at concentrations used in commercial water treatment, water was used as a carrier, for a contact time determined by activity of each biocide and ranging from 1 hour to 24 hours, as detailed below for each of the tested biocides.
# Following the treatment, the medium from each well was removed by pipet and 1 mL of DE neutralization broth was added in order to stop the treatment. Bacteria from each well were then removed by scraping the biofilm formed in the well with a sterile cell-scraper, and 1.0 mL of culture was transferred to chilled (4° C.) 9.0 mL DE neutralizing broth and homogenized for 15 seconds at 40,000 rpm on ice. Further dilutions were performed prior to enumeration (further neutralizing biocide activity). Recovery of bacteria were tested at different dilutions of biocide in water, in LB medium with thioglycolate and in DE neutralizing broth to ensure the active agent was properly neutralized. Viable bacteria were enumerated via the drop plate method. Each biocide was evaluated using 24-well plates with 8 wells each for the control cultures (Ctl) inoculated with P. aeruginosa but not treated, a CDA minus test (−CDA) treated with bromine-containing biocide only, and a CDA plus test treated with bromine-containing biocide and CDA (+CDA).
# [3] = system: mix of planktonic bacteria (E. Coli ATCC 11229, S. aureus ATCC 6538, Enterobacter aerogenes ATCC 130489, P. aeruginosa ATCC 13388); assay: Quantitative suspension test (modified EN 1040) on planktonic bacteria, sequential CDA then biocide; assay type: cell-based; settings: 2.5 ppm BCDMH 3 h, 310 nM CDA 1 h before; TOC=30 ppm, 30° C.
# Description: 310 nM CDA and bromine-containing biocide were introduced into a mix of planktonic bacteria in a medium containing different levels of organic loading (TOC 10-3000 ppm). High organic loading tends to reduce the efficacy of antimicrobial agents in industrial applications and, therefore, the test was aimed to mimic these conditions. The test was performed in accordance with the modified European standard EN 1040: 2005: “Chemical disinfectants and antiseptics—Quantitative suspension test for the evaluation of basic bactericidal activity of chemical disinfectants and antiseptics—Tests method and requirements (phase 1)”. 19 ml of phosphate buffer solution (pH=7) including tryptone in order to obtain a solution of TOC=30 ppm, and 1 ml of the tested bacteria suspension (consisted of E. Coli (ATCC 11229), S. aureus (ATCC 6538), Enterobacter aerogenes (ATCC 130489) and P. aeruginosa (ATCC 13388)), at a concentration of 1.5×10^8-5×10^8 CFU/ml, were placed into a container of suitable capacity. A stopwatch was started immediately and the container was placed in a water bath controlled at 30° C.
# The activity was determined with 2.5 ppm BCDMH alone for a contact time of 3 hours. […] Countable plates were counted and the number of colony-forming units was determined, for each plate.
# [4] = system: biofilm formed by mixed bacteria (Staphylococcus aureus 6538, Bacillus mycoides 6462 and Pseudomonas aeruginosa 700888); assay: Sequential application of CDA then biocide on mixed-bacteria biofilm grown in CDC biofilm reactor; assay type: cell-based
# [5] = Storage stability of biocide/CDA liquid concentrates (HPLC); assay type: physicochemical
# Description: 22 mg of cis-2-decenoic acid (CiVentiChem, 96.72% purity) were charged into 50 ml flask, equipped with a stirrer 3.99 gr of C-103 (ICL, batch 640160147) were added, followed by 9.97 gr of PEG200 (Merck 8.07483.5000 Lot 56904983 451), 5.95 gr of DI water and 22 mg of BHT (Aldrich B1378-100G, BCBH9491V). The obtained solution was stirred till complete clarification; sonication at +30° C. is recommended if some particles are observed. Clear colorless solution of a total […] and 20:50:30:0.1:0.1 weight ratio of C103-PEG200-H2O-CDA-BHT was obtained.
# The solution was tested to determine the stability of the biocide and CDA and under storage at 25° C. over a two-month period.
# 47.6 mg or cis-2-decenoic acid (CiVentiChem, 96.72% purity) were charged into 50 ml flask, equipped with a stirrer. 9.01 gr of Bronopol (ICL, batch 17101607) were added, followed by 18.03 gr of propylene glycol (Biolab 16200201 Lot 1007861), 3.0 gr of DI water and 31.2 mg of BHT (Aldrich B1378-100G, BCBH9491V). After stirring for several minutes, undissolved traces of BHT were filtered through filtering paper for BHT particle removal. Clear colorless solution of a total 30 gr and 30:60:10:0.158:0.1 weight ratio of Bronopol-PG-H2O-CDA-BHT was obtained.
# [6] = Stepwise acidification of CDA sodium/lithium salt (pKa); assay type: physicochemical
# P. aeruginosa biofilm = assay: Simultaneous application of CDA salt form and biocide on 3-day biofilm, CDC biofilm reactor, pH 8-9; assay type: cell-based, Pseudomonas aeruginosa; settings: 310 nM CDA, 1 h
structure (smiles),measurement,setting,value
"CC1(C)C(=O)N(Cl)C(=O)N1Br [BCDMH, 1-bromo-3-chloro-5,5-dimethylhydantoin]",enhancement by combined treatment relative to biocide alone,"[1]; 10 ppm BCDMH, 31 nM commercial CDA (FIG. 13)",4.5 log units
same,enhancement by combined treatment relative to biocide alone,"[1]; 10 ppm BCDMH, 310 nM commercial CDA (FIG. 13)",4.5 log units
same,enhancement by combined treatment relative to biocide alone,"[1]; 10 ppm BCDMH, 3100 nM commercial CDA (FIG. 13)",5.5 log units
same,effect of 5.0 ppm biocide with 310 nM CDA relative to 10 ppm biocide without CDA,"[1]; Example 3, sequential, FIG. 14",comparable
same,reduction by biocide/CDA combination versus the solely applied biocide,"[1]; Example 8, 5 ppm biocide/310 nM CDA, sequential (FIG. 17)",4.5 log units
same,"effect on biofilm of biocides applied alone, compared with each other",[1],comparable effect
same,Log reduction vs. control: biocide alone,"[1]; biocide 10 ppm, 1 h contact time, 3-day-old biofilm",~3.5 log units
same,Enhancement,"[1]; biocide 10 ppm, 310 nM CDA combination vs biocide alone",~2.5 log units
same,Log reduction vs. control: combination of the 310 nM CDA and biocide,"[1]; biocide 10 ppm, 1 h CDA 310 nM then 1 h biocide",~6 log units
same,enhancement by combined treatment relative to biocide alone,"[1]; text of Example 2, biocide 10 ppm, 310 nM commercial CDA (97% by GC)",~2 log units
same,enhancement by combined treatment relative to biocide alone,"[1]; text of Example 2, biocide 10 ppm, 310 nM crude CDA (90% by GC)",~2 log units
same,biofilm reduction by biocide alone,"[1]; text of Example 2, biocide 10 ppm, 1 h",~3 log units
same,log reduction of biocide and CDA compared with biocide alone,"[2]; 10 ppm BCDMH, 310 nM CDA, one hour (FIG. 4)",2
same,Log reduction vs. control: biocide alone,[2]; 2 hours contact time,~4 log units
same,Enhancement,[2]; 2 hours contact time,~2 log units
same,Log reduction vs. control: combination of the 310 nm CDA and biocide,[2]; 2 hours contact time,~6 log units
same,enhancement by CDA and biocide in sequence compared with biocide without CDA,[3],2 log units
same,biofilm reduction by biocide alone,"[4]; biocide 5 ppm or 10 ppm, mixed bacteria biofilm",reduces the biofilm
same,enhancement by combined treatment relative to biocide alone,"[4]; biocide 5 ppm, 310 nM commercial CDA, mixed bacteria biofilm (FIG. 12A)",~2.5 log units
same,enhancement by combined treatment relative to biocide alone,"[4]; biocide 10 ppm, 310 nM commercial CDA, mixed bacteria biofilm (FIG. 12B)",~5.5 log units
same,Log reduction vs. control: biocide alone,"[4]; biocide 10 ppm, 1 h, biofilm formed by mixed bacteria",~2 log units
same,Enhancement,"[4]; biocide 10 ppm, 310 nM CDA combination vs biocide alone, mixed bacteria biofilm",~5.5 log units
same,Log reduction vs. control: combination of the 310 nM CDA and biocide,"[4]; biocide 10 ppm, 1 h CDA 310 nM then 1 h biocide, mixed bacteria biofilm",~7.5 log units
"O=[N+]([O-])C(Br)(CO)CO [Bronopol, 2-bromo-2-nitro-1,3-propanediol]",reduction of number of bacteria by addition of CDA to the biocide treatment,"[2]; 10 ppm bronopol, 310 nM CDA, two hours of treatment (FIG. 2A)",more than an order of magnitude
same,Log reduction vs. control: biocide alone,[2]; 24 hours contact time,~6 log units
same,Log reduction vs. control: biocide alone,"[2]; 24 hours contact time, listed as bronopol",very effective in reducing biofilm
same,Enhancement,[2]; 24 hours contact time,~3 log units
same,Log reduction vs. control: combination of the 310 nm CDA and biocide,[2]; 24 hours contact time,effective in eradicating P. aeruginosa biofilm; also recorded: biofilm eradication
same,degradation under storage (HPLC),[5],Neither bronopol nor CDA underwent degradation
"CCCCCCC/C=C\C(=O)O [CDA, cis-2-decenoic acid]",effect of CDA alone on biofilm compared to the control,[1],no useful effect
same,effect of CDA alone on biofilm compared to the control,"[1]; 310 nM CDA, commercial (97%) or crude (90%), 1 h",no useful effect
same,biocidal action of CDA alone (reduction of bacterial counts),"[1]; CDA on its own, broad concentration range, even >3000 nM",failed to demonstrate biocidal action
same,pKa,[6],6.5 to 7.5
same,effect of CDA alone on biofilm compared to the control,P. aeruginosa biofilm,no useful effect
same,effect of CDA alone on biofilm compared to the control,"[4]; 310 nM commercial CDA, mixed bacteria biofilm",no useful effect
same,degradation under storage (HPLC),"[5]; Example 6 concentrate C103-PEG200-H2O-CDA-BHT 20:50:30:0.1:0.1, 25° C., two months",Neither DBNPA nor CDA underwent degradation
same,degradation under storage (HPLC),"[5]; Example 7 concentrate Bronopol-PG-H2O-CDA-BHT 30:60:10:0.158:0.1, 25° C., two months",Neither bronopol nor CDA underwent degradation
"OCl [sodium hypochlorite, Sodium hypochlorite, reference compound]",reduction by biocide/CDA combination versus the solely applied biocide,[1],2 log units
same,"effect on biofilm of biocides applied alone, compared with each other",[1],comparable effect
